Experimental data as given in patent US9073916B2, “Prodrug forms of kinase inhibitors and their use in therapy” (AUCKLAND UNISERVICES LIMITED, priority 2009, dated 2015).
Where two headings read alike, the source gives them in different places.

Tests used:
SKBR3 cells = assay: Cellular growth inhibition (sulforhodamine B); format: cell-based, Human; conditions: Table 3; for IC50: Homo sapiens, SK-BR-3
Experimental: Human A431, BT474, SKBR3, SKOV3, SW620, H1975 and HT29 carcinoma cells in log phase exponential growth in alpha minimal essential media (αMEM) containing 5% fetal bovine serum (FBS), were harvested by trypsinisation (1× trypsin/EDTA, Gibco Brl), counted, and seeded into 96 well plates (Nunc) at cell densities ranging from 800-1500 cells/well. Half of the cell samples were seeded into plates that were pre-equilibrated and held in an anoxic environment (90% N2, 5% H2, 5% CO2, 37° Q Anaerobic chamber, Coy Laboratory Products). […] At the end of this period the anoxic plates were recovered from the anaerobic camber and held under normoxia in a standard CO2 incubator (37° C.) for 20 hours. All plates were washed free of compound and cells were allowed to proliferate for a further 4 days in αMEM containing 5% FBS+antibiotics. Cells were fixed in trichloroacteic acid (30 min), washed and stained with sulforhodamine B (SRB, 60 min) prior to washing in acidified water. SRB was solubilised and absorption read at 450 nm to calculate cell densities. Inhibition of proliferation was calculated relative to untreated control wells.

[1] = Pulse radiolysis (E(1) and fragmentation rate); format: physicochemical; conditions: determined against methylviologen
Experimental: (§1) Pulse radiolysis was used to monitor the 1-electron reduction and stability of the compounds in real time. A linear accelerator delivering short pulses of high energy electrons (2-3 Gy in 200 ns of 4 MeV) equipped with a fast spectophotometric detection system was used. (Anderson et al, J. Phys. Chem. A, 101, 9704-9709, 1997). […] The rate of fragmentation was determined by analysing kinetic transients at wavelengths corresponding to the formation of the benzyl-type radical of the trigger moiety. (Bays et al, J. Am. Chem. Soc., 105, 320-324, 1983; Anderson et al, J. Phys. Chem. A, 101, 9704-9709, 1997).
The pulse radiolysis method, for example, measures the equilibrium constant between the radical anions of the prodrugs, formed upon their 1-electron reduction, and reference standards such as viologen and quinone compounds, from which data the E(1) values of the compounds can be calculated. (Meisel and Czapski. J. Phys. Chem., 1975, 79, 1503-1509.) The E(1) values of prodrugs 17-22, 140-145 were measured by the pulse radiolysis method and determined to range between −0.493V and −0.388V (Table 4).
The rate constants for fragmentation, kfrag, of the 1-electron reduced prodrugs can be measured using pulse radiolysis to observe the time-resolved formation of the absorption spectrum of the benzyl-type radical produced upon fragmentation of the radical anion. (Anderson et al, J. Phys. Chem. A, 1997, 101, 9704-9709.) The kfrag values of prodrugs 19, 20, 140, 141 and 143-145 were measured by pulse radiolysis and are presented in Table 4.
as §1, with “one-electron” for “1-electron”, “prodrug 42” for “the compounds”, “used.” for “used. (Anderson et al, J. Phys. Chem. A, 101, 9704-9709, 1997).”, “1997.)” for “1997).”

erbB1 [2] = target: T1, erbB1 (Homo sapiens, UniProt P00533); assay: Isolated enzyme inhibition (Invitrogen Z′-LYTE kinase assay); format: biochemical; conditions: 10 μM ATP, duplicate
T1 sequence (P00533 25-1210): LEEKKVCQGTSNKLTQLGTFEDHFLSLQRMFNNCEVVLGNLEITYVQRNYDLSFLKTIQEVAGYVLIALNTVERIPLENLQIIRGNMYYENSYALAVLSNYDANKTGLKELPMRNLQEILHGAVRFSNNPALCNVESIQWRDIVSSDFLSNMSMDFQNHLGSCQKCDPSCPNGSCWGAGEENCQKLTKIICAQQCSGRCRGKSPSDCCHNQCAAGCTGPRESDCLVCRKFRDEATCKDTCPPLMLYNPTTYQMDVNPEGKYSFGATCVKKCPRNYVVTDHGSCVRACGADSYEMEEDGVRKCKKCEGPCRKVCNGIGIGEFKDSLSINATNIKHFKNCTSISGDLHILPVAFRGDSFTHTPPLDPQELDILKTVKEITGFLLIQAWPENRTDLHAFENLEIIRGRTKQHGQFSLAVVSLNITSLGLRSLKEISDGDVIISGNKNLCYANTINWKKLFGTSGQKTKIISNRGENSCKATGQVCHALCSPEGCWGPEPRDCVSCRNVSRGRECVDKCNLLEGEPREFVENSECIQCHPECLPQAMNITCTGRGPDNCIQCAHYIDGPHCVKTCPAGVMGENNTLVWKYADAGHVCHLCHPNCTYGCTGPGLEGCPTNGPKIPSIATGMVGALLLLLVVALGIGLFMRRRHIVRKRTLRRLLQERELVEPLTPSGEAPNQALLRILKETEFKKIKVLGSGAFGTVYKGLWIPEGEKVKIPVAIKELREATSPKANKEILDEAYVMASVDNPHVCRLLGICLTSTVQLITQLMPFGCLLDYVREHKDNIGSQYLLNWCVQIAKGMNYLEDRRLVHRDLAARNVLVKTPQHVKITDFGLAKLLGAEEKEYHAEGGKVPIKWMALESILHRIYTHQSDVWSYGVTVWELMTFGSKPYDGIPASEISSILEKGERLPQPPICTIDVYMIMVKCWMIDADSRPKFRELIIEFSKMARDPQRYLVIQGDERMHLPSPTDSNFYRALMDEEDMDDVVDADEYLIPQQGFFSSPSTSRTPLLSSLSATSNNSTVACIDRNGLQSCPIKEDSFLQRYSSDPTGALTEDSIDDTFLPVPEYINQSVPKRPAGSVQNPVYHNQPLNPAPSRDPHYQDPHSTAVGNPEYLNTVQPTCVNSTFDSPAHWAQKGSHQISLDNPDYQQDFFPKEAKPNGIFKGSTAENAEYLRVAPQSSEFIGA

[3] = Steady state radiolytic reduction by the CO2.− radical with HPLC-MS; format: physicochemical; conditions: for Detection of MNA (methyl nitroaromatic) / release of effector following 1-electron reduction: HPLC-MS; for release of effector following 1-electron reduction: steady state radiolysis
A431 cells = assay: Cellular growth inhibition (sulforhodamine B); conditions: for IC50: Homo sapiens; for A431 Deact. (fold reduction in oxic growth inhibition relative to parent kinase inhibitor) / A431 HCR (Hypoxic Cytotoxicity Ratio): Table 3
erbB1 [4] = target: T1, erbB1; assay: Cellular erbB1 inhibition under oxic and hypoxic conditions in A431 cells; format: cell-based; conditions: 1 μM, 4 hour exposure oxic or hypoxic, washed, EGF stimulated
Experimental: Human A431 epidermoid carcinoma cells were seeded at 400,000 cells/well in a 6 well plate in alpha minimal essential media (αMEM) containing 10% fetal bovine serum, 10 mM D-Glucose and 0.2 mM 2′-deoxycytidine. A431 cells were allowed to attach for 90 minutes under oxic or anoxic conditions, then exposed to test compounds at a concentration of 1 uM for a further 4 hours under oxic or anoxic conditions. The cells were then washed free of test compounds three times using serum free media and then returned to the incubator under oxic conditions overnight. The cells were then stimulated with 100 ng/mL EGF for 15 minutes before the medium was aspirated and the cells were washed with ice-cold PBS.

erbB2 = erbB2 (Homo sapiens, UniProt P04626); assay: Isolated enzyme inhibition (Invitrogen Z′-LYTE kinase assay); format: biochemical; conditions: 10 μM ATP, duplicate
erbB2, sequence (P04626 23-1255): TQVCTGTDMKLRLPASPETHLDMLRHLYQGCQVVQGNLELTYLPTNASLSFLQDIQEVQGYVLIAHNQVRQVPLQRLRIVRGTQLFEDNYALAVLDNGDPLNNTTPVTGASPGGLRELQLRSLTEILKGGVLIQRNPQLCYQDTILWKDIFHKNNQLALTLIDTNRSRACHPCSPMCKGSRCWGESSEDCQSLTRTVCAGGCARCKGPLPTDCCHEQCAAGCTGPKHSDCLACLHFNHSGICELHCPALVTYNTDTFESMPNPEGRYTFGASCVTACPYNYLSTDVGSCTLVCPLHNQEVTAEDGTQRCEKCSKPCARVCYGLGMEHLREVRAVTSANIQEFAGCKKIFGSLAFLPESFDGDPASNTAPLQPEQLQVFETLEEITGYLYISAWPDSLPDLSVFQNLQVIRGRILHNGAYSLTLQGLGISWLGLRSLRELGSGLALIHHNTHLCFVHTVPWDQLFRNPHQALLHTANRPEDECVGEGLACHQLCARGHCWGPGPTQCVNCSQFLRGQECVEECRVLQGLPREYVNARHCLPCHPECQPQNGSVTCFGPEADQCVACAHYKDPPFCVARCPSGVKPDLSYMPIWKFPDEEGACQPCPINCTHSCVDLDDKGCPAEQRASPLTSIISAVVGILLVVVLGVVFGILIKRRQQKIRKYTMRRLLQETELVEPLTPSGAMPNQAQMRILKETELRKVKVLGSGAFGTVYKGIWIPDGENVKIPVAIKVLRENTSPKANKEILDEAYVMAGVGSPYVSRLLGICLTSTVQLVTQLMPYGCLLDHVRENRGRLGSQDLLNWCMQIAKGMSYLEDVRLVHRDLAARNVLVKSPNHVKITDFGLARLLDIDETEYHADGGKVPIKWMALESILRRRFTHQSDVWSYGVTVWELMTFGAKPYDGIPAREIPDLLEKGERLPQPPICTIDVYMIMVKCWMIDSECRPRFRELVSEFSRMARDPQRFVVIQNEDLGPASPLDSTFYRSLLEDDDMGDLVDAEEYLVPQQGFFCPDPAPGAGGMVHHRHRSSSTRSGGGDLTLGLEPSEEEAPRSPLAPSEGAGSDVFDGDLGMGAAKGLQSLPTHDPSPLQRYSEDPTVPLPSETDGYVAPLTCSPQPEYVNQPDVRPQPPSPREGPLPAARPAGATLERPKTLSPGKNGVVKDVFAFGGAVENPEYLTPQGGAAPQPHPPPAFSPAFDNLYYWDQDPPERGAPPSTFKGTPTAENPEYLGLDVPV
Experimental: (§2) The compounds of Table 1 were tested for their ability to inhibit erbB1, erbB1^T790M, erbB2 and erbB4 in an isolated enzyme assay. This assay utilises synthetic FRET-capable peptide substrates. Phosphorylation of these substrates protects them from cleavage by a development reagent, leaving their FRET-capabilities intact. […] As a further consideration, for compounds capable of irreversible inhibition of an enzyme, the IC50 reflects both reversible and irreversible binding to the enzyme.

SW620 cells = assay: Cellular growth inhibition (sulforhodamine B); format: cell-based, Human; conditions: Table 3; for IC50: Homo sapiens, SW-620
erbB1 [5] = target: T1, erbB1; assay: Inhibition of erbB1 autophosphorylation in EGF-stimulated intact A431 cells (Western blot); conditions: for Deact. (fold reduction in cellular erbB1 inhibition relative to the parent kinase inhibitor): Table 2
erbB1^T790M = erbB1^T790M (Homo sapiens, UniProt P00533, T790M); assay: Isolated enzyme inhibition (Invitrogen Z′-LYTE kinase assay); format: biochemical; conditions: 10 μM ATP, duplicate
erbB1^T790M, sequence (P00533 25-1210 T790M): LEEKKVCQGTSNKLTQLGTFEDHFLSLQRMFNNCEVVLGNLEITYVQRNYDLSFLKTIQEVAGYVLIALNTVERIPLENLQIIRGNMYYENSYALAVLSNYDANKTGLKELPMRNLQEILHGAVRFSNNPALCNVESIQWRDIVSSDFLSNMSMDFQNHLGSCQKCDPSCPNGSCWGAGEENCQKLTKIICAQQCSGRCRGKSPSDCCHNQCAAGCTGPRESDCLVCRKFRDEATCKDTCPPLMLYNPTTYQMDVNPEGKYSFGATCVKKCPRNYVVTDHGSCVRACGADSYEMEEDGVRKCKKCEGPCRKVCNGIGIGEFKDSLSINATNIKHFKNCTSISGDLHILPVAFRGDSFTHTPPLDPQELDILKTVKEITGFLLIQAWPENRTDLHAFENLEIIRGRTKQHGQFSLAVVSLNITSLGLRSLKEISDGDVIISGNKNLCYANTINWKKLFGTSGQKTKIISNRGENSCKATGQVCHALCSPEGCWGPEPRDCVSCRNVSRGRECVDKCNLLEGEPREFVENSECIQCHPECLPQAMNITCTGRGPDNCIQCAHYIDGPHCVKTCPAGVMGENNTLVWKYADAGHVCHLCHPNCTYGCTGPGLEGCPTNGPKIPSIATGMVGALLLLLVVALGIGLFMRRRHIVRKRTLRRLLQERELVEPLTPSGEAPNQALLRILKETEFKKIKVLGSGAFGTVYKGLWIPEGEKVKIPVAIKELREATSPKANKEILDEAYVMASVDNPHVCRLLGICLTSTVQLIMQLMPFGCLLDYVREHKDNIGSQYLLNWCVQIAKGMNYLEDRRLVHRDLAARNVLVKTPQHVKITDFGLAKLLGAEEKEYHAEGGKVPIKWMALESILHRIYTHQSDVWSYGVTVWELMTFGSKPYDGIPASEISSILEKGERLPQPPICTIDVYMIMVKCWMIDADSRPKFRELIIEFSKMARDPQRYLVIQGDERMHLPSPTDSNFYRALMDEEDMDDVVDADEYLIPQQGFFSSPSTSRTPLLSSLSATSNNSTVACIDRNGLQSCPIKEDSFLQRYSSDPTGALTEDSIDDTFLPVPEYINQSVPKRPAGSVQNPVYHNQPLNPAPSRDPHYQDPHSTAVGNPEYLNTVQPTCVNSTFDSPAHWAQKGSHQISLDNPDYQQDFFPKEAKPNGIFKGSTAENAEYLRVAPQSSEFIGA

erbB4 = erbB4 (Homo sapiens, UniProt Q15303); assay: as above; format: biochemical; conditions: 10 μM ATP, duplicate
erbB4, sequence (Q15303 26-1308): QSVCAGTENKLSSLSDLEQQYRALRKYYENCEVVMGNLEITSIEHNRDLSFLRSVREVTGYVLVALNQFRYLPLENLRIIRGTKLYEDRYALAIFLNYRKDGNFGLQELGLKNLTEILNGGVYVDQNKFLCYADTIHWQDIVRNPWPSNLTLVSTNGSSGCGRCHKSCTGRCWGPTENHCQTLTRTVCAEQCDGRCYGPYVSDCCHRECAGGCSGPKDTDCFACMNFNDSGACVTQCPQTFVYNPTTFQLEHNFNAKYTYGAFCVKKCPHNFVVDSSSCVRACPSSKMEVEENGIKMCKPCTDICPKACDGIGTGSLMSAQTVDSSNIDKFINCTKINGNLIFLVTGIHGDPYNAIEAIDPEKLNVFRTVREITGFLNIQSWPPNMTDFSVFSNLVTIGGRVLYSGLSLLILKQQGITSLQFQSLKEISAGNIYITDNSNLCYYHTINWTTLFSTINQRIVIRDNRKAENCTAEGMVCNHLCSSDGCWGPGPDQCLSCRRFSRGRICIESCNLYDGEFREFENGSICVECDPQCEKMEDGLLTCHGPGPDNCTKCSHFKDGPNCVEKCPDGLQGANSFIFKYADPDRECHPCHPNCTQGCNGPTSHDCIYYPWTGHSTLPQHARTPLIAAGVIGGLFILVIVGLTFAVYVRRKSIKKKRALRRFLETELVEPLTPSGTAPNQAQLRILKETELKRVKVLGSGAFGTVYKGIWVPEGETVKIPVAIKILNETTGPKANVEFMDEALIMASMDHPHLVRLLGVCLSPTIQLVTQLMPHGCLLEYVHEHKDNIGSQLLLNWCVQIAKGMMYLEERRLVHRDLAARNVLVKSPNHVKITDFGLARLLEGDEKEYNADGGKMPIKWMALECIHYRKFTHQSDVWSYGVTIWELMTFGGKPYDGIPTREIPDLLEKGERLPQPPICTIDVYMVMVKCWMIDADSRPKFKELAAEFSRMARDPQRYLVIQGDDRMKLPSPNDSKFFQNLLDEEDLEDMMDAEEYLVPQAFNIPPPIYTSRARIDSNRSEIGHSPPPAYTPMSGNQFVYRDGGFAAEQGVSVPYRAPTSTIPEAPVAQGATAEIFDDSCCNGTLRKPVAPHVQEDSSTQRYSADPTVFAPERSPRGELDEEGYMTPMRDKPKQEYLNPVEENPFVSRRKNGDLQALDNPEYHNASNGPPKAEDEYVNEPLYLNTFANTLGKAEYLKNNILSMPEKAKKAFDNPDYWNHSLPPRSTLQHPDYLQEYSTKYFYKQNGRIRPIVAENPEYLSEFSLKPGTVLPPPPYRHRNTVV
Experimental: as §2

H1975 xenografts = assay: In vivo efficacy in H1975 xenografts; parameters: species or system mice; conditions: H1975 xenografts, q3dx4 at respective MTD, IP
Experimental: Specific pathogen-free homozygous female NIH-III nude mice (Charles River Laboratories, Wilmington, Mass.) were inoculated subcutaneously with a single cell suspension of H1975 cells (5×10^6 cells/100 μL; right flank). When H1975 tumour xenografts were established (typically 8-12 days) mice were randomized to treatment groups. All compounds were prepared in lactate buffer (pH4). Mice were dosed by intraperitoneal injection (0.01-0.03 ml/g) using the stated schedules and dose levels. For growth delay experiments mice were randomized to treatment and tumor volume [π(length×width^2)/6] and body weight were measured daily following treatment. […] Differences in RTV^4 were tested for statistical difference by Mann Whitney U test using SigmaStat v3.5.

H1975 cells = assay: Cellular growth inhibition (sulforhodamine B); format: cell-based, Human; conditions: Table 9; for IC50: Homo sapiens, NCI-H1975
SKOV3 cells = assay: Cellular growth inhibition (sulforhodamine B); format: cell-based, Human; conditions: Table 9; for IC50: Homo sapiens, SK-OV-3
Experimental: Human A431, H1975 and SKOV3 carcinoma cells in log phase exponential growth in alpha minimal essential media (αMEM) containing 5% fetal bovine serum (FBS), were harvested by trypsinisation (1× trypsin/EDTA, Gibco Brl), counted, and seeded into 96 well plates (Nunc) at cell densities ranging from 800-1500 cells/well. Half of the cell samples were seeded into plates that were pre-equilibrated and held in an anoxic environment (90% N2, 5% H2, 5% CO2, 37° C.; Anaerobic chamber, Coy Laboratory Products). […] At the end of this period the anoxic plates were recovered from the anaerobic camber and held under normoxia in a standard CO2 incubator (37° C.) for 20 hours. All plates were washed free of compound and cells were allowed to proliferate for a further 4 days in αMEM containing 5% FBS+antibiotics. Cells were fixed in trichloroacteic acid (30 min), washed and stained with sulforhodamine B (SRB, 60 min) prior to washing in acidified water. SRB was solubilised and absorption read at 450 nm to calculate cell densities. Inhibition of proliferation was calculated relative to untreated control wells.

[6] = Chemical stability by HPLC; conditions: HPLC after 24 h at 37° C.
[7] = 24 hour exposure entirely oxic, read-out: Cellular Growth Inhibition IC50 SKBR3 Oxic
[8] = first 4 hours anoxic, read-out: Cellular Growth Inhibition IC50 SKBR3 Anoxic
[9] = HPLC-MS at 0.95 reducing equivalents
[10] = A-431, 24 h, read-out: Cellular Growth Inhibition IC50 A431 Oxic
[11] = A-431, read-out: Cellular Growth Inhibition IC50 A431 Anoxic
[12] = 24 hour exposure entirely oxic, read-out: Cellular Growth Inhibition IC50 SW620 Oxic
[13] = first 4 hours anoxic, read-out: Cellular Growth Inhibition IC50 SW620 Anoxic

SMILES	IC50 (SKBR3 cells; [7]) [nM]	IC50 (SKBR3 cells; [8]) [nM]	SKBR3 Deact. (SKBR3 cells) [fold]	SKBR3 HCR (SKBR3 cells) [fold]	E (1)/V (one-electron reduction potential) [1] [V]	IC50 (erbB1 [2]) [nM]	Detection of MNA (methyl nitroaromatic) [3]	% Loss of prodrug [3, 9] [%]	release of effector following 1-electron reduction [3]	IC50 (A431 cells; [10]) [nM]	IC50 (A431 cells; [11]) [nM]	A431 Deact. (fold reduction in oxic growth inhibition relative to parent kinase inhibitor) (A431 cells) [fold]	A431 HCR (Hypoxic Cytotoxicity Ratio) (A431 cells) [fold]	hypoxia-selective inhibition of p-erbB1 (erbB1 [4])	IC50 (erbB2) [nM]	IC50 (SW620 cells; [12]) [nM]	IC50 (SW620 cells; [13]) [nM]	SW620 Deact. (SW620 cells) [fold]	SW620 HCR (SW620 cells) [fold]	IC50 (erbB1 [5]) [nM]	other results
C[N+](C)(C/C=C/C(=O)Nc1ccc2ncnc(Nc3cccc(Br)c3)c2c1)Cc1ccc([N+](=O)[O-])cc1 [Compound 17, (2E)-4-{[4-(3-bromoanilino)-6-quinazolinyl]amino}-N,N-dimethyl-N-(4-nitrobenzyl)-4-oxo-2-buten-1-ammonium bromide]	1520	1840	19	0.8	−0.408	0.56	No	33	did not release their respective effector compounds	462	444	12	1.0	no apparent hypoxia-selective inhibition	110	112000	112000	33	1.0		
C[N+](C)(C/C=C/C(=O)Nc1ccc2ncnc(Nc3cccc(Br)c3)c2c1)Cc1ccccc1[N+](=O)[O-] [Compound 18, (2E)-4-{[4-(3-bromoanilino)-6-quinazolinyl]amino}-N,N-dimethyl-N-(2-nitrobenzyl)-4-oxo-2-buten-1-ammonium bromide]	3750	1290	44	2.8	−0.388	0.2	No	33	did not release their respective effector compounds	2340	401	59	5.8	no apparent hypoxia-selective inhibition	123	92200	79800	27	1.2		
Cn1ncc([N+](=O)[O-])c1C[N+](C)(C)C/C=C/C(=O)Nc1ccc2ncnc(Nc3cccc(Br)c3)c2c1 [Compound 22, (2E)-4-{[4-(3-bromoanilino)-6-quinazolinyl]amino}-N,N-dimethyl-N-[(1-methyl-4-nitro-1H-pyrazol-5-yl)methyl]-4-oxo-2-buten-1-ammonium bromide]	11000	1640	136	6.7	−0.449	0.46	No	35	did not release their respective effector compounds	5860	564	147	10.4	no apparent hypoxia-selective inhibition	135	281000	123000	82	2.3	1390	Effector release/Prodrug loss ([3]; 0.95 reducing equivalents): 0.49; % Release of effector [3, 9]: 17%; Deact. (fold reduction in cellular erbB1 inhibition relative to the parent kinase inhibitor) (erbB1 [5]; A431 cells): 151 fold
Cn1cnc([N+](=O)[O-])c1C[N+](C)(C)CCCC(=O)Nc1ccc2ncnc(Nc3cccc(Br)c3)c2c1 [Compound 27, 4-{([4-(3-bromoanilino)-6-quinazolinyl]amino}-N,N-dimethyl-N-[(1-methyl-4-nitro-1H-imidazol-5-yl)methyl]-4-oxo-1-butanaminium bromide]	507000	74300	159	7.6		0.64				255000	76100	203	3.4		191	684000	585000	37	1.2	3600	IC50 (erbB1^T790M): 798 nM; Deact. (fold reduction in cellular erbB1 inhibition relative to the parent kinase inhibitor) (erbB1 [5]; A431 cells): 201 fold; IC50 (erbB4): 174 nM
C#Cc1cccc(Nc2ncnc3cnc(NC(=O)/C=C/C[N+](C)(C)Cc4c([N+](=O)[O-])ncn4C)cc23)c1 [Compound 58, (2E)-4-{[4-(3-ethynylanilino)pyrido[3,4-d]pyrimidin-6-yl]amino}-N,N-dimethyl-N-[(1-methyl-4-nitro-1H-imidazol-5-yl)methyl]-4-oxo-2-buten-1-ammonium bromide]										2000										513	tumour growth inhibition (TGI) (H1975 xenografts): 171%; IC50 (H1975 cells; 24 hour exposure oxic, read-out: Cellular Growth Inhibition IC50 H1975 Oxic): 98900 nM; IC50 (H1975 cells; first 4 hours anoxic, read-out: Cellular Growth Inhibition IC50 H1975 Anoxic): 3810 nM; H1975 Deact. (H1975 cells): 86 fold; H1975 HCR (H1975 cells): 77.7 fold; Deact. erbB1 (fold reduction in cellular inhibition relative to the parent kinase inhibitor) (erbB1 [5]; Table 8, A431 cells): 64 fold; IC50 (A431 cells; A-431, 4 h, read-out: Cellular Growth Inhibition IC50 A431 Anoxic): 35 nM; A431 Deact. (A431 cells; Table 9): 74 fold; A431 HCR (A431 cells; Table 9): 77.9 fold; IC50 (SKOV3 cells; 24 hour exposure oxic, read-out: Cellular Growth Inhibition IC50 SKOV3 Oxic): 73100 nM; IC50 (SKOV3 cells; first 4 hours anoxic, read-out: Cellular Growth Inhibition IC50 SKOV3 Anoxic): 2510 nM; SKOV3 Deact. (SKOV3 cells): 133 fold; SKOV3 HCR (SKOV3 cells): 38.5 fold; solubility (physchem; aqueous buffer): > 1280 µM; solubility (physchem; water): > 1280 µM; Stability PBS (percentage parent remaining) [6]: 78%; Stability Water (percentage parent remaining) [6]: 98%; Stability α-MEM + FCS (5%) (percentage parent remaining) [6]: 61%
